Measurements reported in PubChem BioAssay (NCI).
“And” between values parts separate entries of the source, which are not always exact repeats. Equal values may be shown once.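 Tested at 5 concentrations; 48 h exposure; 96-well plates; endpoints linearly interpolated, else capped at highest concentration. GI50 is the concentration that inhibits growth by half. TGI: total growth inhibition.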

Assays:
Assay in all cases: inhibition of tumour cell growth, NCI panel, 48 h
MOLT-4 leukemia = test system: MOLT-4 leukemia
SK-MEL-28 melanoma = test system: SK-MEL-28 melanoma
MDA-MB-435 = test system: MDA-MB-435
HCT-116 colon = test system: HCT-116 colon
MALME-3M melanoma = test system: MALME-3M melanoma
HCT-15 colon = test system: HCT-15 colon
OVCAR-3 ovarian = test system: OVCAR-3 ovarian
786-0 renal = test system: 786-0 renal
IGROV1 ovarian = test system: IGROV1 ovarian
SNB-19 CNS = test system: SNB-19 CNS
SK-OV-3 ovarian = test system: SK-OV-3 ovarian
SN12C renal = test system: SN12C renal
OVCAR-5 ovarian = test system: OVCAR-5 ovarian
LOX IMVI melanoma = test system: LOX IMVI melanoma
NCI/ADR-RES ovarian = test system: NCI/ADR-RES ovarian
UO-31 renal = test system: UO-31 renal
TK-10 renal = test system: TK-10 renal
SK-MEL-5 melanoma = test system: SK-MEL-5 melanoma
A498 renal = test system: A498 renal
CAKI-1 renal = test system: CAKI-1 renal
KM12 colon = test system: KM12 colon
UACC-257 melanoma = test system: UACC-257 melanoma
HL-60(TB) leukemia = test system: HL-60(TB) leukemia
COLO 205 colon = test system: COLO 205 colon
BT-549 breast = test system: BT-549 breast
UACC-62 melanoma = test system: UACC-62 melanoma
RXF 393 renal = test system: RXF 393 renal
SF-295 CNS = test system: SF-295 CNS
SK-MEL-2 melanoma = test system: SK-MEL-2 melanoma
HCC-2998 colon = test system: HCC-2998 colon
NCI-H522 lung = test system: NCI-H522 lung
M14 melanoma = test system: M14 melanoma
NCI-H23 lung = test system: NCI-H23 lung
HT29 colon = test system: HT29 colon
PC-3 prostate = test system: PC-3 prostate
OVCAR-4 ovarian = test system: OVCAR-4 ovarian
SW-620 colon = test system: SW-620 colon
U251 CNS = test system: U251 CNS
HS 578T breast = test system: HS 578T breast
DU-145 prostate = test system: DU-145 prostate
A549 NSCLC = test system: A549 NSCLC
RPMI-8226 leukemia = test system: RPMI-8226 leukemia
HOP-92 NSCLC = test system: HOP-92 NSCLC
ACHN renal = test system: ACHN renal
HOP-62 NSCLC = test system: HOP-62 NSCLC
SF-268 CNS = test system: SF-268 CNS
NCI-H226 lung = test system: NCI-H226 lung
EKVX NSCLC = test system: EKVX NSCLC
NCI-H460 lung = test system: NCI-H460 lung
SF-539 CNS = test system: SF-539 CNS
K-562 leukemia = test system: K-562 leukemia
SNB-75 CNS = test system: SNB-75 CNS
T-47D breast = test system: T-47D breast
SR leukemia = test system: SR leukemia
CCRF-CEM leukemia = test system: CCRF-CEM leukemia
MDA-MB-468 breast = test system: MDA-MB-468 breast
MDA-MB-231 breast = test system: MDA-MB-231 breast

With `CC1=C(CCC=NNC(N)=O)C2=C(C)C3(CC3)[C@@](C)(O)C(=O)C2=C1` as the molecule, how does the GI50 (MOLT-4 leukemia) read?
Its GI50 is 1180 nM.

And the TGI (MOLT-4 leukemia)?
The TGI was greater than 41.5 µM.

What about the GI50 (SK-MEL-28 melanoma) of the same molecule?
Its GI50 is 187 nM.

What about the TGI (SK-MEL-28 melanoma) of the same molecule?
The TGI was 369 nM.

What about the GI50 (MDA-MB-435) of the same molecule?
The GI50 was 267 nM.

What about the TGI (MDA-MB-435) of the same molecule?
The TGI was 941 nM.

What about the GI50 (HCT-116 colon) of the same molecule?
Its GI50 is 142 nM.

And the TGI (HCT-116 colon)?
The TGI was 1400 nM.

What about the GI50 (MALME-3M melanoma) of the same molecule?
The GI50 was 82.2 nM.

What about the TGI (MALME-3M melanoma) of the same molecule?
The TGI was 218 nM.

And the GI50 (HCT-15 colon)?
Its GI50 is 122 nM.

What about the TGI (HCT-15 colon) of the same molecule?
The TGI was 616 nM.

What about the GI50 (OVCAR-3 ovarian) of the same molecule?
Its GI50 is 132 nM.

And the TGI (OVCAR-3 ovarian)?
Its TGI is 828 nM.

And the GI50 (786-0 renal)?
The GI50 was 113 nM.

And the TGI (786-0 renal)?
The TGI was 428 nM.

What about the GI50 (IGROV1 ovarian) of the same molecule?
Its GI50 is 35.6 nM.

What about the TGI (IGROV1 ovarian) of the same molecule?
Its TGI is 161 nM.

What about the GI50 (SNB-19 CNS) of the same molecule?
The GI50 was 225 nM.

What about the TGI (SNB-19 CNS) of the same molecule?
Its TGI is 894 nM.

What about the GI50 (SK-OV-3 ovarian) of the same molecule?
Its GI50 is 42.2 nM.

And the TGI (SK-OV-3 ovarian)?
Its TGI is 334 nM.

And the GI50 (SN12C renal)?
Its GI50 is 92.3 nM.

And the TGI (SN12C renal)?
The TGI was 654 nM.

What about the GI50 (OVCAR-5 ovarian) of the same molecule?
The GI50 was 45.1 nM.

What about the TGI (OVCAR-5 ovarian) of the same molecule?
Its TGI is 364 nM.

What about the GI50 (LOX IMVI melanoma) of the same molecule?
The GI50 was 149 nM.

What about the TGI (LOX IMVI melanoma) of the same molecule?
The TGI was 410 nM.

And the GI50 (NCI/ADR-RES ovarian)?
Its GI50 is 104 nM.

What about the TGI (NCI/ADR-RES ovarian) of the same molecule?
Its TGI is 407 nM.

And the GI50 (UO-31 renal)?
The GI50 was 71.2 nM.

And the TGI (UO-31 renal)?
Its TGI is 277 nM.

And the GI50 (TK-10 renal)?
Its GI50 is 278 nM.

And the TGI (TK-10 renal)?
The TGI was 1260 nM.

And the GI50 (SK-MEL-5 melanoma)?
Its GI50 is 94 nM.

What about the TGI (SK-MEL-5 melanoma) of the same molecule?
The TGI was 248 nM.

What about the GI50 (A498 renal) of the same molecule?
The GI50 was 208 nM.

And the TGI (A498 renal)?
The TGI was 511 nM.

What about the GI50 (CAKI-1 renal) of the same molecule?
Its GI50 is 133 nM.

What about the TGI (CAKI-1 renal) of the same molecule?
The TGI was 1110 nM.

And the GI50 (KM12 colon)?
Its GI50 is 506 nM.

And the TGI (KM12 colon)?
The TGI was 7.67 µM.

What about the GI50 (UACC-257 melanoma) of the same molecule?
Its GI50 is 190 nM.

What about the TGI (UACC-257 melanoma) of the same molecule?
The TGI was 427 nM.

What about the GI50 (HL-60(TB) leukemia) of the same molecule?
The GI50 was 56.8 nM.

And the GI50 (COLO 205 colon)?
Its GI50 is 152 nM.

And the TGI (COLO 205 colon)?
The TGI was 314 nM.

And the GI50 (BT-549 breast)?
Its GI50 is 60.5 nM.

What about the TGI (BT-549 breast) of the same molecule?
The TGI was 212 nM.

And the GI50 (UACC-62 melanoma)?
Its GI50 is 142 nM.

And the TGI (UACC-62 melanoma)?
The TGI was 292 nM.

What about the GI50 (RXF 393 renal) of the same molecule?
Its GI50 is 19.4 nM.

What about the TGI (RXF 393 renal) of the same molecule?
Its TGI is 41.8 nM.

And the GI50 (SF-295 CNS)?
The GI50 was 89.3 nM.

What about the TGI (SF-295 CNS) of the same molecule?
The TGI was 1210 nM.

What about the GI50 (SK-MEL-2 melanoma) of the same molecule?
The GI50 was 193 nM.

And the TGI (SK-MEL-2 melanoma)?
The TGI was 362 nM.

What about the GI50 (HCC-2998 colon) of the same molecule?
Its GI50 is 94.1 nM.

What about the TGI (HCC-2998 colon) of the same molecule?
The TGI was 259 nM.

And the GI50 (NCI-H522 lung)?
The GI50 was 165 nM.

What about the TGI (NCI-H522 lung) of the same molecule?
The TGI was 414 nM.

What about the GI50 (M14 melanoma) of the same molecule?
Its GI50 is 74.5 nM.

And the TGI (M14 melanoma)?
The TGI was 253 nM.

And the GI50 (NCI-H23 lung)?
The GI50 was 17.2 nM.

What about the TGI (NCI-H23 lung) of the same molecule?
Its TGI is 45 nM.

What about the GI50 (HT29 colon) of the same molecule?
The GI50 was 170 nM.

What about the TGI (HT29 colon) of the same molecule?
The TGI was 740 nM.

What about the GI50 (PC-3 prostate) of the same molecule?
The GI50 was 175 nM.

What about the TGI (PC-3 prostate) of the same molecule?
The TGI was 1960 nM.

What about the GI50 (OVCAR-4 ovarian) of the same molecule?
The GI50 was 172 nM.

What about the TGI (OVCAR-4 ovarian) of the same molecule?
The TGI was 574 nM.

And the GI50 (SW-620 colon)?
The GI50 was 1440 nM.

And the TGI (SW-620 colon)?
Its TGI is 3.74 µM.

What about the GI50 (U251 CNS) of the same molecule?
The GI50 was 210 nM.

And the TGI (U251 CNS)?
Its TGI is 936 nM.

What about the GI50 (HS 578T breast) of the same molecule?
Its GI50 is 249 nM.

What about the TGI (HS 578T breast) of the same molecule?
Its TGI is 1070 nM.

What about the GI50 (DU-145 prostate) of the same molecule?
The GI50 was 34.7 nM.

And the TGI (DU-145 prostate)?
Its TGI is 1200 nM.

And the GI50 (A549 NSCLC)?
The GI50 was 122 nM.

And the TGI (A549 NSCLC)?
The TGI was 2160 nM.

And the GI50 (RPMI-8226 leukemia)?
Its GI50 is 3.02 µM.

What about the TGI (RPMI-8226 leukemia) of the same molecule?
The TGI was greater than 35.2 µM.

What about the GI50 (HOP-92 NSCLC) of the same molecule?
The GI50 was 34.6 nM.

And the TGI (HOP-92 NSCLC)?
The TGI was 180 nM.

And the GI50 (ACHN renal)?
The GI50 was 68.7 nM.

And the TGI (ACHN renal)?
The TGI was 344 nM.

And the GI50 (HOP-62 NSCLC)?
Its GI50 is 74.4 nM.

And the TGI (HOP-62 NSCLC)?
The TGI was 802 nM.

What about the GI50 (SF-268 CNS) of the same molecule?
The GI50 was 34.3 nM.

And the TGI (SF-268 CNS)?
Its TGI is 423 nM.

And the GI50 (NCI-H226 lung)?
Its GI50 is 200 nM.

And the TGI (NCI-H226 lung)?
Its TGI is 646 nM.

What about the GI50 (EKVX NSCLC) of the same molecule?
The GI50 was 177 nM.

And the TGI (EKVX NSCLC)?
The TGI was 526 nM.

And the GI50 (NCI-H460 lung)?
Its GI50 is 24.3 nM.

And the TGI (NCI-H460 lung)?
Its TGI is 218 nM.

What about the GI50 (SF-539 CNS) of the same molecule?
The GI50 was 32 nM.

And the TGI (SF-539 CNS)?
The TGI was 128 nM.

And the GI50 (K-562 leukemia)?
Its GI50 is 2320 nM.

What about the TGI (K-562 leukemia) of the same molecule?
Its TGI is greater than 37.9 µM.

What about the GI50 (SNB-75 CNS) of the same molecule?
The GI50 was 72.5 nM.

And the TGI (SNB-75 CNS)?
Its TGI is 226 nM.

What about the GI50 (T-47D breast) of the same molecule?
The GI50 was 86.2 nM.

What about the TGI (T-47D breast) of the same molecule?
Its TGI is 2740 nM.

And the GI50 (SR leukemia)?
The GI50 was 1820 nM.

What about the TGI (SR leukemia) of the same molecule?
The TGI was greater than 100 µM.

What about the GI50 (CCRF-CEM leukemia) of the same molecule?
The GI50 was 2360 nM.

And the TGI (CCRF-CEM leukemia)?
Its TGI is greater than 35.2 µM.

What about the GI50 (MDA-MB-468 breast) of the same molecule?
The GI50 was 187 nM and 31.6 nM.

What about the TGI (MDA-MB-468 breast) of the same molecule?
Its TGI is 691 nM and 95.3 nM.

What about the GI50 (MDA-MB-231 breast) of the same molecule?
The GI50 was 142 nM.

And the TGI (MDA-MB-231 breast)?
The TGI was 435 nM.
